Experimental findings from patent US10168342B2, “Lipid probes and uses thereof” (THE SCRIPPS RESEARCH INSTITUTE, priority 2015, dated 2019) are described below.

Each structure is given as a SMILES string. Like-named read-outs stand apart in the source and are kept apart here.

The target of assay [1] is T1, AEA-DA lipid probe targets in Neuro2a cells (Mus musculus, UniProt P57776).
T1 sequence (P57776 1-281): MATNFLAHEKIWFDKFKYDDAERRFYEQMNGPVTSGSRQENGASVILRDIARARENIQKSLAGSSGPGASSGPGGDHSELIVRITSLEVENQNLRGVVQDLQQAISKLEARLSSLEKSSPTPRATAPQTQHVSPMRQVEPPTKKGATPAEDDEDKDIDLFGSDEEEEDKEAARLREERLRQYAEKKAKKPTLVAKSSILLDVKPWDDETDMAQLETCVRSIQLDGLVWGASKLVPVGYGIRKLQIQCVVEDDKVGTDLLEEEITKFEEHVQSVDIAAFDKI

Assay [2] deals with T2, AEA-DA lipid probe targets in Neuro2a cells (Mus musculus, UniProt Q61207).
T2 sequence (Q61207 60-557): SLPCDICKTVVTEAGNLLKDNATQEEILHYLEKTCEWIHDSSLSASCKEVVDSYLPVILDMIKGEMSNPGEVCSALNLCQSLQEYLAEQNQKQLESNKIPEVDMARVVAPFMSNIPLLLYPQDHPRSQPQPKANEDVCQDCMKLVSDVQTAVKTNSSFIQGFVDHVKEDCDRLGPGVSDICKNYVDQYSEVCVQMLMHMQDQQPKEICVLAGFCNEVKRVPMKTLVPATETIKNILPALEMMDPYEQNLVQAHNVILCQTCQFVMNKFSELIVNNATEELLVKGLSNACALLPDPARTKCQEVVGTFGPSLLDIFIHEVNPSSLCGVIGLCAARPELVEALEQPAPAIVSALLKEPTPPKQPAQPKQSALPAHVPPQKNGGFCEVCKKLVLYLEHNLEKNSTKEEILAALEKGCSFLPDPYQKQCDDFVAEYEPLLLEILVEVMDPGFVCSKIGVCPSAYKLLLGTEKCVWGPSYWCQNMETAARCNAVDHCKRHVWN
The note with it: for SILAC ratio, PSAP (P07602): Neuro2a cells, AEA-DA probe.

For assay [3], the target named is AEA-DA lipid probe targets in Neuro2a cells (Mus musculus, UniProt Q62351).
For assay [4], the target named is T3, AEA-DA lipid probe targets in Neuro2a cells (Mus musculus, UniProt Q8K0C4).
T3 sequence (Q8K0C4 1-503): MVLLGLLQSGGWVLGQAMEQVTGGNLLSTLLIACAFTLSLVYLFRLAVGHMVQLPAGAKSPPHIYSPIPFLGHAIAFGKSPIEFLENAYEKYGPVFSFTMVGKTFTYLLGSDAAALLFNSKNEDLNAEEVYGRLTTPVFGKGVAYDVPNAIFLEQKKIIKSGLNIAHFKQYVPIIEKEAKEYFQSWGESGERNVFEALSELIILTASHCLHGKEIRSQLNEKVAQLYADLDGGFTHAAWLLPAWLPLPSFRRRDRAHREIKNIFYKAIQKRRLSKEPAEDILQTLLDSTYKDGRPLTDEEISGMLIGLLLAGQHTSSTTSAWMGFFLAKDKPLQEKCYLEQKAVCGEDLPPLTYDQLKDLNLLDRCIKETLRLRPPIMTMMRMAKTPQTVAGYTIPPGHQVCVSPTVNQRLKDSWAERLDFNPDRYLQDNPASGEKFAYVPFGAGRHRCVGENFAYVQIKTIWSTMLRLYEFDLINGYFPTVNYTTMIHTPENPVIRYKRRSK

Assay [5] concerns the target T4, AEA-DA lipid probe targets in Neuro2a cells (Mus musculus, UniProt Q8R404).
T4 sequence (Q8R404 1-119): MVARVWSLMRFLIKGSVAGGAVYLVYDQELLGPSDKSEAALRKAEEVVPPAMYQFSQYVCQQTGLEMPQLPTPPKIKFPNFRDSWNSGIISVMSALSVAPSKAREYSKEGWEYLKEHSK

The target of assay [6] is AEA-DA lipid probe targets in Neuro2a cells (Mus musculus, UniProt Q8VIK2).
The target of assay [7] is T5, AEA-DA lipid probe targets in Neuro2a cells (Mus musculus, UniProt Q9Z0R9).
T5 sequence (Q9Z0R9 1-444): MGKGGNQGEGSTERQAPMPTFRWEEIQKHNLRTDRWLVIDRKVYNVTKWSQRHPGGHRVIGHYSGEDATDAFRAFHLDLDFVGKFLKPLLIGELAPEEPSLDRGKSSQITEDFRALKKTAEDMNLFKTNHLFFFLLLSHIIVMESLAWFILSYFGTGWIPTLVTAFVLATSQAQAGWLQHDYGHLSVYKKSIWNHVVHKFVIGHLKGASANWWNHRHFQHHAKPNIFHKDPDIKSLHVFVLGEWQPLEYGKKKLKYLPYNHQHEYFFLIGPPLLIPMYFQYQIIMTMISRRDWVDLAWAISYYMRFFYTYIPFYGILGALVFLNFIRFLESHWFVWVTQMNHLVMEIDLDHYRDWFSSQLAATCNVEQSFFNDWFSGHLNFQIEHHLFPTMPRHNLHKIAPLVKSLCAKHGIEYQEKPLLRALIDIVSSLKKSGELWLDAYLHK
The conditions noted are these: for SILAC ratio, FADS2 (Q9Z0R9): Neuro2a cells, AEA-DA probe.

Sequence of AEA-DA lipid probe targets in Neuro2a cells (Mus musculus, UniProt Q62351) (Q62351 whole entry): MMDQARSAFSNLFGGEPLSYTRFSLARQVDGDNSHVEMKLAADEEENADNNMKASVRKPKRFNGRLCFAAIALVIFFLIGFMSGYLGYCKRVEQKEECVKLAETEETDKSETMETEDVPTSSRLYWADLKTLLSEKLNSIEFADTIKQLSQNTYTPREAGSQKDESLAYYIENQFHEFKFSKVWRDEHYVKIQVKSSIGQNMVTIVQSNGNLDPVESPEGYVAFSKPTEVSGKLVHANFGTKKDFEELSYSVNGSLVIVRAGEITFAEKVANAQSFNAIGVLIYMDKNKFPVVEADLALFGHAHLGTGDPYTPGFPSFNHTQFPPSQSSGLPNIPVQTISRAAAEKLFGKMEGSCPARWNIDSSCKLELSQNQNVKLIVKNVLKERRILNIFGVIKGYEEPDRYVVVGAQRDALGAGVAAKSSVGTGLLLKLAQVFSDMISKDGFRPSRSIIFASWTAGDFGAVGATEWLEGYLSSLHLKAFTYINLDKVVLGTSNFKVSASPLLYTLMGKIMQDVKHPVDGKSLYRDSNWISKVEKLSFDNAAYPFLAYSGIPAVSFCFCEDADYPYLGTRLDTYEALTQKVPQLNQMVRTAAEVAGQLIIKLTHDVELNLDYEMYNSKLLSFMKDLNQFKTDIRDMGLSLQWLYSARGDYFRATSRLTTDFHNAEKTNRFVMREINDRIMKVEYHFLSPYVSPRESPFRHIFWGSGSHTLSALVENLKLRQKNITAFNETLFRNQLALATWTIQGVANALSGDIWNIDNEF
Sequence of AEA-DA lipid probe targets in Neuro2a cells (Mus musculus, UniProt Q8VIK2) (Q8VIK2 whole entry): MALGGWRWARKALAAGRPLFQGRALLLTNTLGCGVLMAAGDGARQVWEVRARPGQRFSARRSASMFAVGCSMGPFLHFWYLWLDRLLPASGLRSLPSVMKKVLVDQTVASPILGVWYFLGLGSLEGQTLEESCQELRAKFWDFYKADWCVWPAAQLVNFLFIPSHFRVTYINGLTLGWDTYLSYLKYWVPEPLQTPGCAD

As for `CCCCC/C=C\C/C=C\C/C=C\C/C=C\CCCC(=O)NCCO` [AEA, anandamide, reference compound], in assay [1] (competitor 200 μM), the “SILAC ratio Eef1d” value is 1.1. For the same compound, in assay [2] (competitor 200 μM), the “SILAC ratio, PSAP (P07602)” value is 1.4 and the “SILAC ratio Psap” value is reported as 1.4. Further, the “SILAC ratio Tfrc” value in assay [3] (competitor 200 μM) was 1.0. The “SILAC ratio Cyp51a1” value in assay [4] (competitor 200 μM) turned out to be 1.8. The “SILAC ratio, Qil1” value in assay [5] (competitor 200 μM) is reported as 1.9. The “SILAC ratio Mpv17l2” value in assay [6] (competitor 200 μM) was found to be 1.3. Besides, in assay [7] (competitor 200 μM), the “SILAC ratio, FADS2 (Q9Z0R9)” value was found to be 2.5 and the “SILAC ratio, Fads2” value came out at 2.5.

Turning to `O=C(/C=C/c1cccnc1)NCCCCC1CCN(C(=O)c2ccccc2)CC1` [FK-866, reference compound], the “SILAC ratio Eef1d” value in assay [1] (competitor 25 μM) came out at 1.2. In assay [2] (competitor 25 μM), the “SILAC ratio, PSAP (P07602)” value is 1.0 and the “SILAC ratio Psap” value was 1.0. Moreover, the “SILAC ratio Tfrc” value in assay [3] (competitor 25 μM) is reported as 1.1. In assay [4] (competitor 25 μM), the “SILAC ratio Cyp51a1” value was determined as 1.5. Further, in assay [5] (competitor 25 μM), the “SILAC ratio, Qil1” value is on record as 1.2. Also, the “SILAC ratio Mpv17l2” value in assay [6] (competitor 25 μM) worked out at 1.4. For the same compound, in assay [7] (competitor 25 μM), the “SILAC ratio, FADS2 (Q9Z0R9)” value was 1.2 and the “SILAC ratio, Fads2” value was found to be 1.2.

Turning to `CN1CCN(C(=O)c2c(-c3ccccc3)c3cc([N+](=O)[O-])ccc3n2C)CC1` [KML110, (1-Methyl-5-nitro-3-phenyl-1H-indol-2-yl)(4-methylpiperazin-1-yl)methanone], the “SILAC ratio Eef1d” value in assay [1] (competitor 25 μM) was 1.4. Further, the “SILAC ratio Psap” value in assay [2] (competitor 25 μM) is 1.3. Further, the “SILAC ratio Tfrc” value in assay [3] (competitor 25 μM) was found to be 1.1. Besides, the “SILAC ratio Cyp51a1” value in assay [4] (competitor 25 μM) stood at 1.2. Moreover, the “SILAC ratio, Qil1” value in assay [5] (competitor 25 μM) stood at 1.5. Moreover, the “SILAC ratio Mpv17l2” value in assay [6] (competitor 25 μM) turned out to be 1.5. Also, the “SILAC ratio, Fads2” value in assay [7] (competitor 25 μM) was 1.4.

With `CN1CCN(C(=O)c2[nH]c3ccc([N+](=O)[O-])cc3c2-c2ccccc2)CC1` [MJN228, (4-Methylpiperazin-1-yl)(5-nitro-3-phenyl-1H-indol-2-yl)methanone], the “SILAC ratio Eef1d” value amounted to 1.3 in assay [1] (competitor 25 μM) and 1.4 in assay [1] (competitor 100 μM). Further, the “SILAC ratio, PSAP (P07602)” value in assay [2] (competitor 25 μM) came to 1.4. Moreover, the “SILAC ratio Psap” value in assay [2] (competitor 10 μM) is 1.1; in assay [2] (competitor 25 μM), 1.4; in assay [2] (competitor 50 μM), 1.4; in assay [2] (competitor 100 μM), 1.6. Also, the “SILAC ratio Tfrc” value in assay [3] (competitor 10 μM) worked out at 1.1; in assay [3] (competitor 25 μM), 1.0; in assay [3] (competitor 50 μM) it was 1.0; in assay [3] (competitor 100 μM), 1.0. For the same compound, the “SILAC ratio Cyp51a1” value is given as 1.5 in assay [4] (competitor 10 μM), 2.2 in assay [4] (competitor 25 μM), 2.3 in assay [4] (competitor 50 μM) and 3.1 in assay [4] (competitor 100 μM). Moreover, the “SILAC ratio, Qil1” value in assay [5] (competitor 10 μM) was 1.2; in assay [5] (competitor 25 μM) it was 1.5; in assay [5] (competitor 50 μM), 1.7; in assay [5] (competitor 100 μM) it was 2.5. Besides, the “SILAC ratio Mpv17l2” value is 1.1 in assay [6] (competitor 10 μM), 1.2 in assay [6] (competitor 25 μM), 1.0 in assay [6] (competitor 50 μM) and 3.6 in assay [6] (competitor 100 μM). Further, the “SILAC ratio, FADS2 (Q9Z0R9)” value in assay [7] (competitor 25 μM) came out at 1.8. Also, the “SILAC ratio, Fads2” value worked out at 1.3 in assay [7] (competitor 10 μM), 1.8 in assay [7] (competitor 25 μM), 1.9 in assay [7] (competitor 50 μM) and 2.8 in assay [7] (competitor 100 μM).

Turning to `C=CCN(C)CCCCCCOc1ccc(C(=O)c2ccc(Br)cc2)c(F)c1` [Ro 48-8071, reference compound], the “SILAC ratio Eef1d” value in assay [1] (competitor 25 μM) was 0.9. In addition, in assay [2] (competitor 25 μM), the “SILAC ratio, PSAP (P07602)” value came out at 1.0 and the “SILAC ratio Psap” value came out at 1.0. Moreover, the “SILAC ratio Tfrc” value in assay [3] (competitor 25 μM) worked out at 0.8. Further, in assay [4] (competitor 25 μM), the “SILAC ratio Cyp51a1” value was 1.3. The “SILAC ratio, Qil1” value in assay [5] (competitor 25 μM) turned out to be 1.2. Further, the “SILAC ratio Mpv17l2” value in assay [6] (competitor 25 μM) was determined as 1.8. Besides, in assay [7] (competitor 25 μM), the “SILAC ratio, FADS2 (Q9Z0R9)” value is given as 1.2 and the “SILAC ratio, Fads2” value is given as 1.2.
